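Cells were grown in 96-well plates and exposed to each compound for 48 hours at five concentrations; endpoints were interpolated linearly between bracketing concentrations, or set to the highest concentration if not reached. TGI: concentration producing complete growth inhibition.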
Legend:
Experiment in all cases: growth of human tumour cells (NCI), 48 h
[1] = tested on: DU-145 prostate
[2] = tested on: OVCAR-8 ovarian
[3] = tested on: SNB-19 CNS
[4] = tested on: CCRF-CEM leukemia
[5] = tested on: NCI-H226 lung
[6] = tested on: MDA-MB-231 breast
[7] = tested on: HS 578T breast
[8] = tested on: COLO 205 colon
[9] = tested on: MALME-3M melanoma
[10] = tested on: UACC-257 melanoma
[11] = tested on: KM12 colon
[12] = tested on: ACHN renal
[13] = tested on: SK-MEL-28 melanoma
[14] = tested on: SW-620 colon
[15] = tested on: HOP-62 NSCLC
[16] = tested on: UACC-62 melanoma
[17] = tested on: SK-OV-3 ovarian
[18] = tested on: EKVX NSCLC
[19] = tested on: HOP-92 NSCLC
[20] = tested on: SF-539 CNS
[21] = tested on: CAKI-1 renal
[22] = tested on: SN12C renal
[23] = tested on: 786-0 renal
[24] = tested on: SF-295 CNS
[25] = tested on: MCF7 breast
[26] = tested on: MDA-MB-435
[27] = tested on: SF-268 CNS
[28] = tested on: TK-10 renal
[29] = tested on: HL-60(TB) leukemia
[30] = tested on: OVCAR-3 ovarian
[31] = tested on: RXF 393 renal
[32] = tested on: M14 melanoma
[33] = tested on: OVCAR-4 ovarian
[34] = tested on: NCI-H23 lung
[35] = tested on: HCT-15 colon
[36] = tested on: SK-MEL-2 melanoma
[37] = tested on: HCT-116 colon
[38] = tested on: HCC-2998 colon
[39] = tested on: RPMI-8226 leukemia
[40] = tested on: NCI/ADR-RES ovarian
[41] = tested on: A498 renal
[42] = tested on: K-562 leukemia
[43] = tested on: MOLT-4 leukemia
[44] = tested on: MDA-N
[45] = tested on: LOX IMVI melanoma
[46] = tested on: NCI-H522 lung
[47] = tested on: SR leukemia
[48] = tested on: T-47D breast
[49] = tested on: UO-31 renal
[50] = tested on: BT-549 breast
[51] = tested on: SK-MEL-5 melanoma
[52] = tested on: U251 CNS
[53] = tested on: HT29 colon
[54] = tested on: A549 NSCLC
[55] = tested on: SNB-75 CNS
[56] = tested on: IGROV1 ovarian
[57] = tested on: PC-3 prostate

In the case of CCCc1[nH]nc(C(N)=O)c1N=NN(C)C, the TGI [1] is reported as greater than 100 µM, the TGI [2] is reported as greater than 100 µM and the TGI [3] is reported as greater than 100 µM. The TGI [4] was greater than 100 µM, the TGI [5] was greater than 100 µM and the TGI [6] was greater than 100 µM. For the same molecule, the TGI [7] was greater than 100 µM, the TGI [8] was greater than 100 µM and the TGI [9] was greater than 100 µM. The TGI [10] was greater than 100 µM, the TGI [11] was greater than 100 µM and the TGI [12] was greater than 100 µM. It also gave a TGI [13] greater than 100 µM, a TGI [14] greater than 100 µM and a TGI [15] greater than 100 µM. The TGI [16] was greater than 100 µM, the TGI [17] was greater than 100 µM and the TGI [18] was greater than 100 µM. It also gave a TGI [19] greater than 100 µM, a TGI [20] greater than 100 µM and a TGI [21] greater than 100 µM. For the same molecule, the TGI [22] was greater than 100 µM, the TGI [23] was greater than 100 µM and the TGI [24] was greater than 100 µM. For the same molecule, the TGI [25] was 80 µM, the TGI [26] was greater than 100 µM and the TGI [27] was greater than 100 µM. For the same molecule, the TGI [28] was greater than 100 µM, the TGI [29] was greater than 100 µM and the TGI [30] was greater than 100 µM. For the same molecule, the TGI [31] was greater than 100 µM, the TGI [32] was greater than 100 µM and the TGI [33] was greater than 100 µM. For the same molecule, the TGI [34] was greater than 100 µM, the TGI [35] was greater than 100 µM and the TGI [36] was greater than 100 µM. The TGI [37] was greater than 100 µM, the TGI [38] was greater than 100 µM and the TGI [39] was greater than 100 µM. The TGI [40] was greater than 100 µM, the TGI [41] was greater than 100 µM and the TGI [42] was greater than 100 µM. The TGI [43] was 49 µM, the TGI [44] was greater than 100 µM and the TGI [45] was greater than 100 µM. It also gave a TGI [46] of 74.9 µM, a TGI [47] of 40.6 µM and a TGI [48] greater than 100 µM. The TGI [49] was greater than 100 µM, the TGI [50] was greater than 100 µM and the TGI [51] was greater than 100 µM. The TGI [52] was greater than 100 µM, the TGI [53] was greater than 100 µM and the TGI [54] was greater than 100 µM. For the same molecule, the TGI [55] was greater than 100 µM, the TGI [56] was greater than 100 µM and the TGI [57] was greater than 100 µM.

— PubChem BioAssay (NCI)
